{"source": "paper PMC5675611", "about": "“GZD824 suppresses the growth of human B cell precursor acute lymphoblastic leukemia cells by inhibiting the SRC kinase and PI3K/AKT pathways” (Oncotarget, 2016)", "key": {"ABL": {"target": "T1, ABL (Homo sapiens, UniProt P00519)", "T1 construct": "purchased Ambit Bioscience (CA, USA), KINOMEscan service", "T1 sequence (P00519 whole entry)": "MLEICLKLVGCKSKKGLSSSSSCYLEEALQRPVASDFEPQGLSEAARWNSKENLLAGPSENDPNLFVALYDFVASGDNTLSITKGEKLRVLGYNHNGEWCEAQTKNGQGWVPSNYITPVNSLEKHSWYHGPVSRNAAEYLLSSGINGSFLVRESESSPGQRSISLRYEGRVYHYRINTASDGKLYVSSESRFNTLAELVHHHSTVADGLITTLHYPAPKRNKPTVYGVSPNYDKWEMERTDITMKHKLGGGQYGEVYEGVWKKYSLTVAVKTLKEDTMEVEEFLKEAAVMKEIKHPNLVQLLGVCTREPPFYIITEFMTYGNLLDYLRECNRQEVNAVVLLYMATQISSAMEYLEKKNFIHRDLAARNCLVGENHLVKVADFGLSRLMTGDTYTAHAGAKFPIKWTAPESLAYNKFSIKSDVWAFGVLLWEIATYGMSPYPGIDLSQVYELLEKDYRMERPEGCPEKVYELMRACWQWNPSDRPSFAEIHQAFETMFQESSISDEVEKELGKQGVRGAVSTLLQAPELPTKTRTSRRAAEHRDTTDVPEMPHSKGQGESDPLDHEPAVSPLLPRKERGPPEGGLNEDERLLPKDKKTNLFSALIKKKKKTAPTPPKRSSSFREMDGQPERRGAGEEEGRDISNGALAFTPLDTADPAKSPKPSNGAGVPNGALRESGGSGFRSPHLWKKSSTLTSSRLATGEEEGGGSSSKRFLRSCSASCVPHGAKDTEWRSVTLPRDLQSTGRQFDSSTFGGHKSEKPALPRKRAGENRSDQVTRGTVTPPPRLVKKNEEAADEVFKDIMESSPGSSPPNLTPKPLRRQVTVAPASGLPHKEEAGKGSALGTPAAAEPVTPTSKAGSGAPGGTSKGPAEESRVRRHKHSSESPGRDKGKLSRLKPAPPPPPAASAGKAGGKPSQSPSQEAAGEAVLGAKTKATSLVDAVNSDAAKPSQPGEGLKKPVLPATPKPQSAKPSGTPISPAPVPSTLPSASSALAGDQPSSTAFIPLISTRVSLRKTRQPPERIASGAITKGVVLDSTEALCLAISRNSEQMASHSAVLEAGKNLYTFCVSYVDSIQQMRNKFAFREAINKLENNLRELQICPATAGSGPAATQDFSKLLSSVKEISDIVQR", "test": "Active-site-dependent competition kinase binding assay (KINOMEscan)", "description": "(§1) Kinase assay was performed as previously described. The binding activities of GZD824 were analyzed by KINOME scan system conducted by Ambit Bioscience (CA, USA). Briefly, kinases were tagged with DNA. The ligands were biotinylated and immobilized to streptavidin coated beads. The binding reactions were assembled by incubating DNA-tagged kinases, immobilized ligands, and test compounds in binding reactions (20% SeaBlock, 0.17×PBS, 0.05% tween-20, 6 mM DTT) for 1.0 h at room temperature. The affinity beads were washed with washing buffer (1×PBS, 0.05% Tween-20) first and then elution buffer (1×PBS, 0.05% Tween 20, 0.5μM nonbiotinylated affinity ligands). The kinase concentration in the eluate was determined by quantitative PCR of the DNA tagged to the kinase. The ability of the test compound to bind to the kinase was evaluated with percent control (%) as (test compound signal −positive control signal)/negative control signal−positive control signal) ×100%. Negative control is DMSO control (100% ctrl) and positive control is control compound (0% ctrl)."}, "MAPK": {"tested_on": "MAPK", "test": "Active-site-dependent competition kinase binding assay (KINOMEscan)", "description": "as §1"}, "SRC": {"target": "T2, SRC (Homo sapiens, UniProt P12931)", "T2 construct": "purchased Ambit Bioscience (CA, USA), KINOMEscan service", "T2 sequence (P12931 whole entry)": "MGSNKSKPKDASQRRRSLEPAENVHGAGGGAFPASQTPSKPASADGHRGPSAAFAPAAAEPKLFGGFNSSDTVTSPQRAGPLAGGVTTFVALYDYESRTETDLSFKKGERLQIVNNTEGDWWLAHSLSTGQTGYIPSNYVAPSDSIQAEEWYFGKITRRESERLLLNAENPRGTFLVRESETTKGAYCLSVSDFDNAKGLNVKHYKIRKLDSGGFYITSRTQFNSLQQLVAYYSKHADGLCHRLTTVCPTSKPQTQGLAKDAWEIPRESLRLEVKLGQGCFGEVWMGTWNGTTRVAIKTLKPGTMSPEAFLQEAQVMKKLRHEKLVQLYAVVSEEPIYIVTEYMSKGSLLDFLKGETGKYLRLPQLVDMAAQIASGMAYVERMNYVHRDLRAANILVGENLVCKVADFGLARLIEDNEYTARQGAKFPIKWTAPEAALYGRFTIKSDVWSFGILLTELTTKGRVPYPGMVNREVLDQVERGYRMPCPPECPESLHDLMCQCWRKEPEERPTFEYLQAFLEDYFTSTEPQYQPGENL", "test": "Active-site-dependent competition kinase binding assay (KINOMEscan)", "description": "as §1"}, "JAK": {"tested_on": "JAK", "test": "Active-site-dependent competition kinase binding assay (KINOMEscan)", "description": "as §1"}, "SUPB15": {"tested_on": "SUPB15", "test": "CCK8 viability / proliferation assay", "assay_type": "cell-based", "conditions": "Homo sapiens, SUP-B15, 24 h, read-out: IC50, inhibition of proliferation", "description": "(§2) Viability was calculated relative to time-matched untreated controls. D824 is short for GZD824 in the following figure. B. Left: representative flow cytometric analysis of NALM6 and SUPB15 cells treated with DMSO, 1μM, or 3μM of GZD824 for 24 hours. Right: Statistical analysis of AnnexinV-positive cells in GZD824 treated NALM6 and SUPB15 cells. C. Left: representative images of cell cycle distribution in NALM6 and SUPB15 cells treated with DMSO or 3μM of GZD824 for 24 hours. Right: Statistical analysis of the distribution of cells in G0/G1 phases in GZD824 treated cells. Data are shown as the mean ± SEM (error bars) from three independent experiments. Significance values: ^*P<0.05; ^**P<0.01; ^***P<0.001. […] For each plot they are listed in the order upper left, upper right, lower left, lower right."}, "NALM6": {"tested_on": "NALM6", "test": "CCK8 viability / proliferation assay", "assay_type": "cell-based", "conditions": "Homo sapiens, NALM-6, 24 h, read-out: IC50, inhibition of proliferation", "description": "as §2"}, "[1]": {"tested_on": "phosphorylated AKT (Ser473)", "test": "Western blot of NALM6 cells", "assay_type": "cell-based, human", "conditions": "NALM6, 1μM or 3μM, 24 hours", "description": "(§3) Figure 6 GZD824 inhibits PI3K/AKT signaling in pre-B ALL cells A. […] Bars represent the mean percentages of AnnexinV+ cells in each group. B. Primary pre-B ALL cells from spleen of P#1 xenograft mouse treated with DMSO, GZD824 (1μM), IGF-1 (10ng/ML), or both. Bars represent the mean percentages of AnnexinV+ cells in each group. C. Western blot analysis of NALM6 cells. Cells were treated with DMSO, GZD824 (1μM), or GZD824 (3μM) for 24 hours. Lysates were analyzed with antibodies against IRS1, phosphate AKT, and AKT. D. Western blot analysis of primary pre-B ALL cells. Primary cells treated with GZD824 (1μM), IGF-1 (10ng/ML), or both for 24 hours. Lysates were analyzed with antibodies against Irs1, phosphate AKT, and AKT. For Western blot analysis, 30 μg of total protein extracts prepared from NALM6 or primary pre-B ALL cells from SP of PDX mice were separated on SDS-PAGE and transferred to a PVDF membrane (Bio-Rad, Hercules, CA, USA). […]"}, "IRS1": {"tested_on": "IRS1", "test": "Western blot of NALM6 cells", "assay_type": "cell-based, human", "conditions": "NALM6, 1μM or 3μM, 24 hours", "description": "as §3"}}, "note": "pIC50: −log10 of the molar value."}
{"compound": "Cc1ccc(C(=O)Nc2ccc(CN3CCN(C)CC3)c(C(F)(F)F)c2)cc1C#Cc1cnc2[nH]ncc2c1", "note": "[GZD824]", "values": [{"measurement": "remaining binding at 0.01 µM", "setting": "ABL; read-out: %Ctrl@10nM", "result": 2.8, "unit": "%"}, {"measurement": "remaining binding at 0.1 µM", "setting": "ABL; read-out: %Ctrl@100nM", "result": 0.15, "unit": "%"}, {"measurement": "%Ctrl@10nM", "setting": "MAPK; MAPK, 10 nM, mean of two independent experiments", "result": 81, "unit": "%"}, {"measurement": "%Ctrl@100nM", "setting": "MAPK; MAPK, 100 nM, mean of two independent experiments", "result": 81, "unit": "%"}, {"measurement": "binding to MAPK (in words)", "setting": "MAPK; kinase assay", "result": "does not bind"}, {"measurement": "remaining binding at 0.01 µM", "setting": "SRC; SRC, 10 nM, mean of two independent experiments, read-out: %Ctrl@10nM", "result": 26, "unit": "%"}, {"measurement": "remaining binding at 0.1 µM", "setting": "SRC; SRC, 100 nM, mean of two independent experiments, read-out: %Ctrl@100nM", "result": 0.75, "unit": "%"}, {"measurement": "binding to the SRC kinase (in words)", "setting": "SRC; kinase assay", "result": "high affinity"}, {"measurement": "%Ctrl@10nM", "setting": "JAK; JAK, 10 nM, mean of two independent experiments", "result": 100, "unit": "%"}, {"measurement": "%Ctrl@100nM", "setting": "JAK; JAK, 100 nM, mean of two independent experiments", "result": 100, "unit": "%"}, {"measurement": "binding to JAK (in words)", "setting": "JAK; kinase assay", "result": "does not bind"}, {"measurement": "pIC50", "setting": "SUPB15", "result": "< 6.30"}, {"measurement": "pIC50", "setting": "NALM6", "result": 6.30}, {"measurement": "levels of phosphorylated AKT (Ser473)", "setting": "[1]", "result": "reduced"}, {"measurement": "levels of IRS1 protein", "setting": "IRS1", "result": "reduced"}]}
